Source: ChEMBL document CHEMBL3102777, “Binding ability of a thymine-functionalized oligolysine towards nucleic acids” (Bioorg Med Chem, 2014)
The source made the active and inactive calls. No cut-off for these calls is given here. Residues, ends and D or L forms follow the SMILES beside them. *: point of attachment. Acetyl(thymin-1-yl) = Cc1cn(CC(=O)*)c(=O)[nH]c1=O

Experiments:
[1] = Binding affinity to poly rA RNA (unknown origin) at 24 nM by circular dichroism analysis
[2] = Binding affinity to […] RNA (unknown origin) at 1.5:1 compound to RNA ratio by circular dichroism analysis
[3] = Binding affinity to dA12 DNA (unknown origin) at 2.5:1 compound to DNA ratio by circular dichroism analysis
[4] = Binding affinity to dT12 DNA (unknown origin) at 24 nM by circular dichroism analysis
[5] = Binding affinity to […] RNA (unknown origin) by surface plasmon resonance assay
[6] = Binding affinity to […] RNA (unknown origin) at 2:1 compound to RNA ratio by circular dichroism analysis
[7] = Binding affinity to dA12 DNA (unknown origin) at 24 nM by circular dichroism analysis
[8] = Binding affinity to poly rA RNA (unknown origin) at 2:1 compound to RNA ratio assessed as melting temperature by circular dichroism analysis
[9] = Binding affinity to poly rA RNA (unknown origin) at 2:1 compound to RNA ratio by circular dichroism analysis
[10] = Half life in 94% human serum at 14 uM; format: ADME
[11] = Binding affinity to poly rA RNA (unknown origin) by surface plasmon resonance assay
[12] = Binding affinity to […] RNA (unknown origin) at 12.8 uM assessed as melting temperature by UV analysis
[13] = Binding affinity to dA12 DNA (unknown origin) at 10 uM assessed as melting temperature by UV analysis

Cc1cn(CC(=O)NCCCC[C@H](NC(=O)[C@H](CCCCN)NC(=O)[C@H](CCCCNC(=O)Cn2cc(C)c(=O)[nH]c2=O)NC(=O)[C@H](CCCCN)NC(=O)[C@H](CCCCNC(=O)Cn2cc(C)c(=O)[nH]c2=O)NC(=O)[C@H](CCCCN)NC(=O)[C@H](CCCCNC(=O)Cn2cc(C)c(=O)[nH]c2=O)NC(=O)[C@H](CCCCN)NC(=O)[C@H](CCCCNC(=O)Cn2cc(C)c(=O)[nH]c2=O)NC(=O)[C@H](CCCCN)NC(=O)[C@@H](N)CCCCNC(=O)Cn2cc(C)c(=O)[nH]c2=O)C(=O)N[C@@H](CCCCN)C(N)=O)c(=O)[nH]c1=O (H-K(Acetyl(thymin-1-yl))KK(Acetyl(thymin-1-yl))KK(Acetyl(thymin-1-yl))KK(Acetyl(thymin-1-yl))KK(Acetyl(thymin-1-yl))KK(Acetyl(thymin-1-yl))K-NH2)
Activity [1]: Active
Activity [2]: Active
Activity [3]: Active
Activity [4]: Active
Activity [5]: Active
Activity [6]: Active
Activity [7]: Active
Tm [8]: 35 °C
Activity [9]: Active
half-life at 14 µM [10]: 45 min
Activity [11]: Active
Tm [12]: 27 °C
Tm [13]: 25 °C
